ChEMBL document CHEMBL1147850, “Conversion of some 2(3H)-furanones bearing a pyrazolyl group into other heterocyclic systems with a study of their antiviral activity” (2007)

Experiments:
Format in all cases: functional
Design in all cases: scale not given: the % may be the effect or the level left
Hepatovirus A [1] = assay: Antiviral activity against HAV in Vero cells assessed as plaque infectivity reduction at 10 ug/ml
Human alphaherpesvirus 1 [2] = assay: Antiviral activity against HSV1 in Vero cells assessed as plaque infectivity reduction at 10 ug/ml
Human alphaherpesvirus 1 [3] = assay: Antiviral activity against HSV1 in Vero cells assessed as plaque infectivity reduction at 20 ug/ml
Hepatovirus A [4] = assay: Antiviral activity against HAV in Vero cells assessed as plaque infectivity reduction at 20 ug/ml

Row | SMILES | Activity (Hepatovirus A [1]) [%] | Activity (Human alphaherpesvirus 1 [2]) [%] | Activity (Human alphaherpesvirus 1 [3]) [%] | Activity (Hepatovirus A [4]) [%]
1 | O=C(C/C(=C\c1cn(-c2ccccc2)nc1-c1ccccc1)c1n[nH]c(=S)[nH]1)c1ccc(Cl)cc1 | 40 | 0 | 38 | 50
2 | O=C(C/C(=C\c1cn(-c2ccccc2)nc1-c1ccccc1)c1n[nH]c(=S)o1)c1ccc(Cl)cc1 | 0 | 14 | 45 | 0
3 | NC(=O)NNC(=O)/C(=C/c1cn(-c2ccccc2)nc1-c1ccccc1)CC(=O)c1ccc(Cl)cc1 | 0 | 42.8 | 52 | 20
4 | COc1ccc(C2=C/C(=C\c3cn(-c4ccccc4)nc3-c3ccccc3)C(=O)N2Cc2ccccc2)cc1 | 0 | 23 | 45 | 0
5 | O=C(NNC(=O)c1ccccc1)/C(=C/c1cn(-c2ccccc2)nc1-c1ccccc1)CC(=O)c1ccc(Cl)cc1 | 30 | 10 | 38 | 60
6 | O=C(C/C(=C\c1cn(-c2ccccc2)nc1-c1ccccc1)c1n[nH]c(=O)[nH]1)c1ccc(Cl)cc1 | 0 | 0 | 14 | 10
7 | O=C(NCc1ccccc1)/C(=C/c1cn(-c2ccccc2)nc1-c1ccccc1)CC(=O)c1ccc(Cl)cc1 | 40 | 4 | 23.8 | 60
8 | NNC(=O)/C(=C/c1cn(-c2ccccc2)nc1-c1ccccc1)CC(=O)c1ccc(Cl)cc1 | 20 | 26 | 42.8 | 30
9 | COc1ccc(-c2cc(Cc3cn(-c4ccccc4)nc3-c3ccccc3)c(=O)[nH]n2)cc1 | 20 | 21 | 47 | 50
10 | O=C1OC(c2ccc(Cl)cc2)=C/C1=C\c1cn(-c2ccccc2)nc1-c1ccccc1 | 40 | 0 | 0 | 60
